Results as given in patent US12441706B2, “Protein degradation agent compound preparation method and application” (SHANGHAI JEMINCARE PHARMACEUTICALS CO., LTD., priority 2019, dated 2025).
Read-outs that look alike come from different tables or passages of the source. One block for each compound: values may come before it.

Tests used:
LNcap FGC cells = assay: Inhibition of proliferation of LNcap FGC cells (Cell Titer Glo, 6 days); assay type: cell-based; details: Homo sapiens, 144 h
Description: Tumor cell line LNcap FGC (ATCC catalog number CRL-1740) was cultured in RPMI 1640 (Gibco catalog number 11875-093) and DMEM (Gibco catalog number. 11965-092) medium containing 10% FBS (Gibco catalog number 10099-141C), respectively.
(§1) LNcap FGC cells were inoculated in a 384-well plate (Perkin Elmer catalog number 6007460) at a cell density of 400 cells/well in a volume of 20 μL/well and incubated overnight in a carbon dioxide incubator (Thermo). The prepared compound solutions of different concentrations were added in a volume of 5 μL/well. The corresponding vehicle control was set at the same time. After being cultured in the incubator for 6 days, the cell plate and the contents were equilibrated to room temperature, and 25 μL of Cell Titer Glor (Promega catalog number G7573) was added to each well, shook and mixed well, incubated in dark for 10-30 minutes, and the signal values were detected with Envision microplate reader (PerkinElmer).
(§2) The percentage inhibition rate of compound-treated wells was calculated from the vehicle control wells on the plate, and the percentage inhibition rate data corresponding to different concentrations were fitted by GraphPad prism, and the IC50 values were calculated by 4-parameter nonlinear logic formula.

androgen receptor = molecular target: T1, androgen receptor (Homo sapiens, UniProt P10275, T878A); assay: In-Cell-Western determination of androgen receptor degradation in LnCaP cells; assay type: cell-based; details: for DC50: concentration for half of the maximal degradation of AR in LnCaP cells
T1 construct: endogenous in cells; host or cells: LNCaP cells
T1 sequence (P10275 1-920 T878A): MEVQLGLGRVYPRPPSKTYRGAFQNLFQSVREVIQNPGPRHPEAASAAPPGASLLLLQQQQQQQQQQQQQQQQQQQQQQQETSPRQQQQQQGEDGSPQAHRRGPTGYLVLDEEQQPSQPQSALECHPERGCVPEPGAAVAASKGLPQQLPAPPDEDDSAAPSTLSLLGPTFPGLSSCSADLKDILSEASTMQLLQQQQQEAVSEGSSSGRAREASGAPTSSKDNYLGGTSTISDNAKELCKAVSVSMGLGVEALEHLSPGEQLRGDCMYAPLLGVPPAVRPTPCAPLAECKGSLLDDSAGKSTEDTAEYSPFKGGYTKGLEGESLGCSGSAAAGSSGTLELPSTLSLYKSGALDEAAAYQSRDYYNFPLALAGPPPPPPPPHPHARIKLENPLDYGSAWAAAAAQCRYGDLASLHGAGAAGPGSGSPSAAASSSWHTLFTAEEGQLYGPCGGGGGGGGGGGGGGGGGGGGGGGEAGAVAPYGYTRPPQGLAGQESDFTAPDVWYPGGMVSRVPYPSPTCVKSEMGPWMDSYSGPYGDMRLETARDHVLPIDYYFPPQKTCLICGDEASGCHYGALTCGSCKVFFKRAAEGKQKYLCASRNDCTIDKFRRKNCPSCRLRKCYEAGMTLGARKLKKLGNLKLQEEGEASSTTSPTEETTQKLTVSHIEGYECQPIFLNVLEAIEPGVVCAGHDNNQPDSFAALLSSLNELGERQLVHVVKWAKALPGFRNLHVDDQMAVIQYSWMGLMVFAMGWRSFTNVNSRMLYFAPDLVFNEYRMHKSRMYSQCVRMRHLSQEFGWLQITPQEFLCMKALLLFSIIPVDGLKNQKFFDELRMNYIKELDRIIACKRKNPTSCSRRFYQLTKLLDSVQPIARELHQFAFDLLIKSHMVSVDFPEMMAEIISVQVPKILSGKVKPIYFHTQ
Description: The determination evaluated the properties of the compounds in Lncap cells. Intracellular androgen receptor was determined by In-Cell-Western according to the determination steps described below.
In poly-D-Lysin pretreated 96-well cell culture plate (Corning 3599), LNcap cells were divided into 100 μL/well volume, and inoculated with 30,000 cells/well in LNcap cell assay medium [DMEM containing phenol red (Gibco catalog number: 11995065); fetal bovine serum FBS (Gibco catalog number: 10099141C)]. Cells were cultured for at least two days.
1. First treated cells with compound. Compounds were gradient diluted with DMSO and cell culture medium, so that DMSO contained in cell culture plates was diluted to 0.5% —polypropylene plates were used according to the following protocol: (1)(i) 200× stock plate in DMSO was prepared; (ii) 10 mM stock solution was diluted 1:4 with DMSO (10 μL stock solution+40 μL DMSO)=2000 μM, then entered into row 2; (iii) 1:4 (10 μL protac+40 μL DMSO) gradient dilution was performed from row 2 to row 9, and row 1 was reserved for […] reference compound and row 10 for DMSO. (iv) A total of 8 concentrations (final concentrations on the 200× plate were 2000 μM, 400 μM and 80 μM, etc.). (2) (i) 3× stock solution was prepared in the medium. (ii) 3 μL of 200× stock solution was transferred to 197 µL of culture medium (using 12-channel pipette, from line 1 to line 10), i.e. 3× stock solution plate. (iii) The stock solution plate was mixed evenly. (3) (i) The culture medium of […] cells was replaced with fresh culture medium, 100 μL volume culture medium. (ii) The well-mixed 3× stock solution was transferred to the cell culture plate (using a 12-channel pipette, and 50 μL of stock solution was transferred from line 1 to line 10). (iii) Cells were cultured for 24 hours.
2. The expression level of intracellular androgen receptor after compound treatment was […] and determined according to the following method.
(1)(i) Equal volume of 8% paraformaldehyde was added to the cell culture plate for cell fixation. The fixing solution in the cell plate was discarded and washed three times with PBS. (ii) Triton solution (1:1000 dilution of the stock solution) was prepared. The solution in the cell plate was discarded, and 200 μL of Triton diluent was added into each well. (iii) 2×blocking solution (1:4 dilution of 10×blocking stock solution) was prepared. The solution in the cell plate was discarded, and 100 μL of 2×blocking solution was added into each well. (iv) Primary antibody solution (Androgen receptor Rabbbit mAb, Cell Signaling Technology catalog number: 5153; 1:1000 dilution) was prepared. The solution in the cell plate was discarded, 100 μL volume of primary antibody diluent was added to each well, and incubated at 4° C. overnight. (v) The primary antibody solution was discarded and the cell plate was washed with 1×Wash buffer. (vi) Secondary antibody solution (GOAT Antirabbit IgG (H+L), HRP, Thermo catalog number: 31460; 1:5000 dilution) was prepared, and 100 μL volume of secondary antibody dilution was added to each well for incubation. (vii) The secondary antibody solution in the cell plate was discarded and the cell plate was washed with 1×Wash buffer. (viii) TMB chromogenic solution (BD catalog number: 550534) was prepared, and 100 μL chromogenic solution was added into each well. (ix) 50 μL volume of stop solution (BD catalog number: 550534) was added to each well. (x) The absorption values at OD 450 nm and 570 nm were read though EnVision. (2) (i) Normalized analysis was performed on the number of cells in each well. The solution in the cell plate was discarded, and washed with wash buffer for three times. (ii) Janus dilution (1:3 dilution) was prepared. (iii) 50 μL volume diluent was added to each well for incubation. (iv) The solution in the plate was discarded and washed with deionized water. […]

VCap cells = assay: Inhibition of proliferation of VCap cells (Cell Titer Glo, 6 days); assay type: cell-based; details: Homo sapiens, 144 h
Description: Tumor cell line VCap FGC (ATCC catalog number CRL-2876) was cultured in DMEM (Gibco catalog number 11965-092) medium containing 10% FBS (Gibco catalog number 10099-141C), respectively. During the determination, Vcap cells were replaced with DMEM medium containing 5% FBS and 0.1 nM R1881 (Sigma catalog number R0908).
as §1, with “Vcap” for “LNcap”, “1200” for “400”, “shake” for “shook”, “mix” for “mixed”, “though” for “with”
as §2, with “from” for “from the”

[1] = In vivo pharmacokinetics in mice, intravenous injection and oral administration; parameters: species or system mouse; details: male CD1 mice
Description: In this experimental example, in vivo pharmacokinetics in mice were evaluated by intravenous injection and oral administration.
Experimental methods and conditions: Male CD1 mice, aged 6-8 weeks, all animals were free access to food and water, and were given a single dose of the compound to be tested at 1 mg/Kg by intravenous injection (solvent 5% DMSO/15% Solutol/80% Saline), at 5 min, 15 min, 30 min, 1 hr, 2 hr, 4 hr, 8 hr, 24 hr, 48 h after drug administration, or oral gavage administration of 10 mg/kg (solvent 5% DMSO/10% Solutol/85% Saline), at 15 min, 30 min, 1 hr, 2 hr, 4 hr, 6 h, 8 hr, 24 hr, 48 h after administration, blood was collected from the orbit, no less than 50 μL for each sample, heparin sodium was used for anticoagulation, and then placed on ice after collection, and centrifuged within 1 hour to separate the plasma for testing. The plasma concentration of the drug was detected by liquid tandem mass spectrometry (LC/MS/MS), and the pharmacokinetic parameters were calculated by Phoenix WinNonlin software.

[2] = LnCaP cell proliferation, 6 days, read-out: IC50
[3] = maximum degree of inhibition of LnCaP cell proliferation, 6 days, read-out: Emax
[4] = mouse, intravenous administration 1 mg/kg, plasma
[5] = mouse, oral administration 10 mg/kg, plasma

- IC50 (LNcap FGC cells; [2]): 89.1 nM
Compound: COc1cc(N2C(=O)C(C)(C)c3cc(-c4ccc(N5CC(CN6CCN(c7ccc8c(c7)C(=O)N(C7CCC(=O)NC7=O)C8=O)CC6)C5)cc4)ccc32)ccc1C#N (centres unmarked) [Compound 2]
- Emax (LNcap FGC cells; [3]): 98%

Compound: CC1(C)C(=O)N(c2ccc(C#N)c(Cl)c2)c2ccc(-c3ccc(N4CC(CN5CCN(c6ccc7c(c6)CN(C6CCC(=O)NC6=O)C7=O)CC5)C4)cc3)cc21 (centres unmarked) [Compound 4]
- Dmax (androgen receptor; LNCaP): 91%
- DC50 (androgen receptor; 24 hours treatment): 108 nM

Compound: CC1(C)C(=O)N(c2ccc(C#N)c(Cl)c2)c2ccc(-c3ccc(N4CC(F)(CN5CCN(c6ccc7c(c6)C(=O)N(C6CCC(=O)NC6=O)C7=O)CC5)C4)cc3)cc21 (centres unmarked) [Compound 5]
- IC50 (LNcap FGC cells; [2]): 95.7 nM
- Emax (LNcap FGC cells; [3]): 93%

Compound: CC1(C)C(=O)N(c2ccc(C#N)c(Cl)c2)c2ccc(-c3ncc(N4CC(CN5CCN(c6ccc7c(c6)C(=O)N(C6CCC(=O)NC6=O)C7=O)CC5)C4)cn3)cc21 (centres unmarked) [Compound 6]
- Emax (LNcap FGC cells; LNCaP): 99%
- IC50 (LNcap FGC cells; LNCaP): 76.7 nM
- Emax (VCap cells; VCaP): 94%
- IC50 (VCap cells; VCaP): 81 nM
- F ([1]; oral administration 10 mg/kg vs intravenous 1 mg/kg): 71.3%
- AUC(0-inf) [1, 4]: 9860 ng·h/mL
- clearance [1, 4]: 1.69 mL/min/kg
- half-life [1, 4]: 11.2 h
- AUC(0-inf) [1, 5]: 70300 ng·h/mL
- Cmax [1, 5]: 2920 ng/mL
- half-life [1, 5]: 11.2 h

Compound: CC1(C)C(=O)N(c2ccc(C#N)c(Cl)c2)c2ccc(-c3ccc(N4CC(CN5CCN(c6cc7c(cc6F)C(=O)N(C6CCC(=O)NC6=O)C7=O)CC5)C4)cc3)cc21 (centres unmarked) [Compound 7]
- Dmax (androgen receptor; LNCaP): 75%
- DC50 (androgen receptor; 24 hours treatment): 72.1 nM

Compound: CC1(C)C(=O)N(c2ccc(C#N)c(Cl)c2)c2ccc(-c3cnc(N4CC(CN5CCN(c6ccc7c(c6)C(=O)N(C6CCC(=O)NC6=O)C7=O)CC5)C4)cn3)cc21 (centres unmarked) [Compound 10]
- IC50 (LNcap FGC cells; [2]): 39.4 nM
- Emax (LNcap FGC cells; [3]): 100%
- IC50 (VCap cells; VCaP cell proliferation, 6 days, 5% FBS and 0.1 nM R1881, read-out: IC50): 50 nM
- Emax (VCap cells; maximum degree of inhibition of VCaP cell proliferation, 6 days, 5% FBS and 0.1 nM R1881, read-out: Emax): 98%

- DC50 (androgen receptor; 24 hours treatment, read-out: DC50): 74.7 nM
- Dmax (androgen receptor; maximum degradation of AR in LnCaP cells, 24 hours treatment, read-out: Dmax): 74%
Compound: CC1(C)C(=O)N(c2cnc(C#N)c(Cl)c2)c2ccc(-c3ccc(N4CC(CN5CCN(c6ccc7c(c6)C(=O)N(C6CCC(=O)NC6=O)C7=O)CC5)C4)cc3)cc21 (centres unmarked) [Compound 11]

Compound: CC1(C)C(=O)N(c2ccc(C#N)c(Cl)c2)c2ccc(-c3ccc(-c4cnn(CCN5CCN(c6ccc7c(c6)C(=O)N(C6CCC(=O)NC6=O)C7=O)CC5)c4)cc3)cc21 (centres unmarked) [Compound 12]
- Dmax (androgen receptor; LNCaP): 75%
- DC50 (androgen receptor; 24 hours treatment): 78.8 nM
- Emax (LNcap FGC cells; LNCaP): 68%
- IC50 (LNcap FGC cells; LNCaP): 82 nM

Compound: CC1(C)C(=O)N(c2ccc(C#N)c(Cl)c2)c2ccc(-c3ccc(-c4cnn(CCCN5CCN(c6ccc7c(c6)C(=O)N(C6CCC(=O)NC6=O)C7=O)CC5)c4)cc3)cc21 (centres unmarked) [Compound 13]
- Dmax (androgen receptor; LNCaP): 100%
- DC50 (androgen receptor; 24 hours treatment): 73.4 nM

Compound: CC1(C)C(=O)N(c2ccc(C#N)c(C(F)(F)F)c2)c2ccc(-c3ccc(N4CC(CN5CCN(c6ccc7c(c6)C(=O)N(C6CCC(=O)NC6=O)C7=O)CC5)C4)nc3F)cc21 (centres unmarked) [Compound 15]
- Dmax (androgen receptor; LNCaP): 67%
- DC50 (androgen receptor; 24 hours treatment): 3.49 nM
- Emax (VCap cells; VCaP): 92%
- IC50 (VCap cells; VCaP): 82 nM
